We go through two substances from US20060217340A1, “Methods and products for treating hypertension by modulation of TRPC3 channel activity” (University of Vermont and State Agricultural College, priority 2005, published 2006).

Series [1] concerns pressurized rat cerebral arteries. As to the kind of experiment: Arterial wall Ca2+ concentration measurement (FURA-2) in isolated arteries. It counts as cell-based. As to conditions: for change in arterial wall Ca2+: Ca2+ returned to superfusate in the presence of UTP and nimodipine. As to the method: Diameter and membrane potential recordings. […] In experiments using Ca^2+-free PSS, CaCl2 was omitted and 3 mM EGTA and 30 μM diltiazem added. In experiments with diacylglycerol induction, 300 μM of the diacylglycerol analogue OAG (1-oleyol-2-acetyl-sn-glycerol) was added. […] To verify endothelial cell removal the arteries were pressurized to 60 mmHg and allowed to develop myogenic tone prior to exposing the vessels to 1 μM UTP. […] Arterial diameter or membrane potential (Vm) of sense and anti-sense treated arteries was measured in the absence (control) or presence of UTP (concentration range: 0.1 to 10 μM). Membrane potential was measured by inserting a sharp glass electrode (≈100 MΩ resistance) containing 0.5M KCl into the vessel wall. […] Measurements were made using an electrometer (World Precision Instruments) and the data were recorded via computer using Axotape and Dataq software. Arterial diameter was measured using a video dimension analyzer (IonOptix Corporation; Milton, Mass.).
Ca^2+ concentration measurement in isolated arteries. Mounted arteries were equilibrated in 1.6 m M PSS for 40 minutes at 37° C. (pH 7.4) prior to loading the vascular smooth muscle cells with the Ca^2+-sensitive fluorescent dye, FURA-2. To load the cells, the 1.6 mM PSS was gradually replaced over 5 minutes with HEPES solution (25° C., pH 7.4). A total of 40 μL of a premixed 100 μM FURA-2-acetoxymethyl ester solution (100 μg FURA-2, 200 μL Pluronic acid, 800 μL DMSO) was added directly to the HEPES to give a final concentration of 2 μM FURA-2 AM. Loading continued in the dark at 25° C. (pH 7.4) for 40 minutes. At the end of the loading period, the HEPES was replaced with 1.6 mM PSS (35° C., pH 7.4) and 30 minutes was allowed for complete de-esterification of the FURA-2 AM before [Ca^2+]c measurements were made. FURA-2 fluorescence was measured using a photomultiplier system (IonOptix Corporation; Milton, Mass., USA) in which background-corrected ratios of the 510-nm emission from arteries alternatively excited at 340 and 380 nm were obtained at a sampling rate of 5 Hz.

The test system is the same in series [2]. The series is described as follows: Arterial diameter recordings (constriction) in pressurized cerebral arteries. It counts as cell-based. As to conditions: for change in lumen diameter: Ca2+ returned to superfusate in the presence of UTP and nimodipine; for decrease of resting diameter: extracellular KCl raised from 5 mM to 60 mM; for myogenic tone: intravascular pressure increased from 20 to 80 mm Hg. The text has this: Oligodeoxynucleotide Sequences and Reverse Permeabilization. TRPC6 sense and antisense oligodeoxynucleotides (ODN's) were designed as previously described (Welsh et al 2002 Circ Res 90, 248-250) and were as follows: sense, 5′-[…]-3′ (SEQ ID: 3) and 5′-GCACACGCAGCCTCTTCAC-3′ (SEQ ID: 4) antisense, 5′-[…]-3′ (SEQ ID: 5) and 5′-[…]-3′ (SEQ ID: 6). TRPC3 sense and antisense ODN's were designed based on the rat TRPC3 gene (Ohki et al 2000 J Biol Chem 275: 39055-39060) and are as follows: sense, 5′-[…]-3′ (SEQ ID: 7) and 5′-[…]-3′ (SEQ ID: 8); anti-sense, 5′-[…]-3′ (SEQ ID: 9) and 5′-[…]-3′ (SEQ ID: 10). The last five bases on the 5′ and 3′ end were phosphorothioated in order to limit ODN degradation. For some experiments fluoroscein-isothiocyanate was conjugated to the 5′ end to allow for histological assessment of cellular uptake of the ODNs. All ODNs were synthesized and HPLC purified commercially by Qiagen (Alameda, Calif., USA). Sense and antisense ODN's (2 μM) were introduced into the arterial SMs using a reversible permeabilization procedure (Lesh et al 1995 Circ Res 77,220-230)). The arterial segments were then organ cultured for 3 days in D-MEM/F-12 culture media with L-glutamine (2 mM), penicillin (50 units/ml) and streptomycin (50 μg/ml) prior to use.
Diameter and membrane potential recordings. Endothelial cell denuded artery segments were mounted on glass pipettes in an arteriograph chamber (Living Systems, Burlington, Vt., USA), pressurized to 20 mmHg (with no flow), and superfused with warm (37° C.), gassed (95% 02/5% CO2) physiological saline solution (PSS) containing (in mM): 119 NaCl, 4.7 KCl, 24 NaHCO3, 0.2 KH2PO4, […], 1.2 MgSO4, 1.6 CaCl2, and 10.6 glucose, pH 7.4. In experiments using Ca^2+-free PSS, CaCl2 was omitted and 3 mM EGTA and 30 μM diltiazem added. In experiments with diacylglycerol induction, 300 μM of the diacylglycerol analogue OAG (1-oleyol-2-acetyl-sn-glycerol) was added. The endothelium was removed as previously described (Sun et al 1993 Endothelium 1, 115-122). To verify endothelial cell removal the arteries were pressurized to 60 mmHg and allowed to develop myogenic tone prior to exposing the vessels to 1 μM UTP. Absence of a dilation or biphasic constrictor response to 1 μM UTP indicated successful endothelial cell removal (Marelli 2001 Am J Physiol Heart Cir Physiol 281, H1759-H1766; Miyagi et al 1996 Br J Pharmacol 118, 847-856). […] Membrane potential was measured by inserting a sharp glass electrode (≈100 MΩ resistance) containing 0.5M KCl into the vessel wall. The criteria for successful vascular smooth muscle cell impalement were: (1) a sharp negative Vm deflection on entry; (2) a stable potential for at least 1 minute after entry; and (3) a sharp positive Vm deflection upon removal. Measurements were made using an electrometer (World Precision Instruments) and the data were recorded via computer using Axotape and Dataq software. Arterial diameter was measured using a video dimension analyzer (IonOptix Corporation; Milton, Mass.).
Statistical analysis. Data are expressed as means±SEM, and n indicates the number of animals. Changes in arterial diameter were measured as a percent constriction calculated as follows: [formula]

The mark [3] stands for this setting: 1 μM UTP, paired arteries, original recordings (FIG. 7A).

As for “5′-GAGAACCATGAACTGGAATA-3′ (SEQ ID: 9) and 5′-ACGACCAACACGACCAGACA-3′ (SEQ ID: 10) (phosphorothioate ends, further chemistry not given here) [TRPC3 antisense, antisense ODNs based on the rat TRPC3 gene; last five bases on the 5′ and 3′ end phosphorothioated]”, the “increase in arterial wall Ca2+” value in series [1] (300 μM OAG) was 6 ± 2 nM. In series [1], the “change in arterial wall Ca2+” value came out at 50 ± 12 nM. Further, in series [2], the “generalized inhibitory effect on arterial contractility” value is given as “no generalized inhibitory effect”, the “change in lumen diameter” value is reported as −85±17 μm, the “decrease of resting diameter” value is on record as 57±9% and the myogenic tone was 27±5%. In series [2] (setting [3]), this substance returned a constriction of 30%. The substance also yielded a constriction in series [2] (300 μM OAG) of 1±1%. Moreover, the “reduction of UTP-induced constriction compared with sense-treated arteries” value in series [2] (10^−5 M UTP) came to 37%. The “reduction of UTP-induced constriction compared with sense-treated arteries” value in series [2] (10^−6 M UTP) is “approximately 61%”. The “constrictions versus sense treated arteries” value in series [2] (low concentration of UTP (0.1 to 1.0 μM)) was “significantly less”.
“5′-TATTCCAGTTCATGGTTCTC-3′ (SEQ ID: 7) and 5′-TGTCTGGTCGTGTTGGTCGT-3′ (SEQ ID: 8) (phosphorothioate ends, further chemistry not given here) [TRPC3 sense, sense control ODNs based on the rat TRPC3 gene; end bases phosphorothioated]”: in series [1], the “change in arterial wall Ca2+” value is 100 ± 22 nM. The substance also gave a constriction in series [2] (setting [3]) of 38%. For the same substance, the constriction in series [2] (300 μM OAG) was 17±3%. In series [2], the “change in lumen diameter” value is recorded as −128±8 μm, the “decrease of resting diameter” value is reported as 58±12% and the myogenic tone came to 26±4%.
